Data reported in US11186617B2, “Epitope” (HOYU CO., LTD., priority 2017, dated 2021).
Entries after “also recorded” stand apart in the source; their conditions may differ.

What was measured:
[1] = tested on: IgE antibody from the patient; assay: Epitope mapping (3): alanine scanning ELISA, patient serum; format: binding, human; conditions: alanine-substituted peptides; serum from patient 1; FIG. 3
Description: (§1) The amino acid sequence of SEQ ID NO: 22 and the amino acid sequence of SEQ ID NO: 29 identified in the above-mentioned (B) were subjected to a technique referred to as alanine scanning (Non Patent Literature 1). Specifically, a library of peptide fragments was prepared by a technique similar to that described above in (B), in which the peptide fragments were produced by substituting one amino acid at a time with alanine in each amino acid sequence of […], starting from the amino acid at an amino terminal side. Then, a technique similar to that described above in (B) was used to measure whether each peptide fragment was bound by the IgE antibody in the serum from a patient and a healthy subject, or not. When alanine substitution of an amino acid at a certain position led to loss or reduction of binding activity to the IgE antibody from the patient and development of binding activity to the IgE antibody from the healthy subject, the amino acid was determined to be an amino acid important for expression of inherent antigenicity or an amino acid affecting expression of inherent antigenicity. […] A common sequence important for expression of inherent antigenicity was discovered by this analysis.
(§2) The result of alanine scanning performed on the amino acid sequence of SEQ ID NO: 22 and the result of alanine scanning performed on the amino acid sequence of SEQ ID NO: 29 are shown in FIG. 3, respectively.

[2] = tested on: IgE antibody from the healthy subject; assay: Epitope mapping (3): alanine scanning ELISA, healthy subject serum; format: binding, human; conditions: alanine-substituted peptides; sera from healthy individuals 1 and 2; FIG. 3
Description: as §1, §2

[3] = tested on: anti-human IgE antibody as a secondary antibody; assay: Epitope mapping (3): alanine scanning ELISA, secondary antibody used alone; format: binding; conditions: alanine-substituted peptides, FIG. 3
Source text: FIG. 3 is a diagram showing the result of investigation of positions important for exerting antigenicity in SEQ ID NOs: 22 and 29 by an alanine scanning technique. The number on the horizontal axis denotes a value of coloration intensity at 450 nm measured by an absorption spectrometer (Abs.). In this figure, a double wavy line denotes that a value is not shown, P1 denotes that the serum from patient 1 was used, N1 and N2 denote that the sera from healthy individuals 1 and 2 were used, and 2nd denotes that an anti-human IgE antibody as a secondary antibody was used alone.
as §1, §2

[4] = tested on: IgE antibody in the serum from a patient; assay: Epitope mapping (2): overlapping peptide library, ELISA; format: binding, human; conditions: overlapping peptide fragments, 10 amino acids in length; 10 μg/ml biotin-bound peptide; 2% serum from patient 1; FIG. 2
Description: Based on the sequences (SEQ ID NOs: 6 and 13) of the peptides to which the IgE antibody in the serum bound in a manner specific to a patient in the above (A), a library of overlapping peptide fragments (10 amino acids in length) was prepared. The library was prepared using the sequences where sequences of the previous sequence and the next sequence of the aforementioned peptides in the full-length amino acid sequence of ω-5 gliadin from bread wheat (SEQ ID NO: 51) were added to the aforementioned peptides, and epitope mapping was performed.
Each synthesized peptide was shifted by one amino acid. In other words, each peptide overlaps with the previous peptide and the next peptide, each by 9 amino acids.
The target peptide was synthesized on the amino-modified resin in a 96-well plate by a method similar to that described above for (A). Biotin was bound to the amino terminus of the synthesized target peptide, with the biotin and the peptide sandwiching amino caproic acid derived from Fmoc-Acp(6)-OH as a spacer.
Said library was used to measure whether each peptide fragment is bound by the IgE antibody in the serum from a patient due to an antigen-antibody reaction, or not, and identify a sequence common to the peptides bound by the IgE antibody from the patient, thereby determining a peptide having the shortest amino acid sequence that serves as an epitope. Measurement was performed by an ELISA method in accordance with the following procedures.
(1) 10 μg/ml biotin-bound peptide of the library was prepared in PBST solution and was shaken in an avidin-coated ELISA plate for one hour at room temperature.
(2) The plate was washed with PBST solution.
(3) The plate was shaken in PBST solution with 1% skimmed milk for one hour at room temperature.
(4) The plate was shaken in PBST solution with 2% serum and 1% skimmed milk for one hour at room temperature.
(5) The plate was washed with PBST solution.
(6) Anti-human IgE antibody-HRP (1:10,000, PBST solution with 1% skimmed milk) was added and the plate was shaken for one hour at room temperature.
(7) The plate was washed with PBST solution.
(8) 20 μl of TMB ELISA (manufactured by Thermo Fisher Scientific) was added and the plate was shaken for 15 minutes at room temperature.
(9) 20 μl of 2 M sulfuric acid was added to quench an enzymatic reaction.
(10) An absorbance at 450 nm was measured.
(SEQ ID NO: 15), a subsequence of ω-5 gliadin from bread wheat, was measured by the overlapping technique in the library prepared based on SEQ ID NO: 6 and the obtained result is shown in FIG. 2. […] (SEQ ID NO: 23), a subsequence of ω-5 gliadin from bread wheat, was measured by the overlapping technique in the library prepared based on SEQ ID NO: 13 and the obtained result is shown in FIG. 2.

Substance	binding activity to the IgE antibody from the patient (absorbance at 450 nm) [1]	binding activity to the IgE antibody from the healthy subject (absorbance at 450 nm) [2]	binding activity to the anti-human IgE antibody as the secondary antibody (absorbance at 450 nm) [3]	binding with the IgE antibody from the patient (absorbance at 450 nm) [4]
SEQ ID NO: 7: amino acid at position 3 in SEQ ID NO: 22 substituted with alanine (QQFPQQEAPQQQQFP; epitope)	retained binding activity; also recorded: substantially increased binding activity	developed little binding activity	developed little binding activity	
SEQ ID NO: 14: amino acid at position 5 in SEQ ID NO: 29 substituted with alanine (PQQQAPQQHQFPQQQ; epitope)	retained binding activity; also recorded: substantially increased binding activity	did not develop binding activity		
SEQ ID NO: 16: overlapping 10-amino-acid peptide fragment from SEQ ID NO: 15 library (EFPQQQQFPQ; epitope candidate)				no binding
SEQ ID NO: 17: overlapping 10-amino-acid peptide fragment from SEQ ID NO: 15 library, contains SEQ ID NO: 22 (QEFPQQQQFP; epitope candidate)				slightly weaker binding
SEQ ID NO: 18: overlapping 10-amino-acid peptide fragment from SEQ ID NO: 15 library, contains SEQ ID NO: 22 (QQEFPQQQQF; epitope candidate)				strong binding
SEQ ID NO: 19: overlapping 10-amino-acid peptide fragment from SEQ ID NO: 15 library, contains SEQ ID NO: 22 (PQQEFPQQQQ; epitope candidate)				slightly weaker binding
SEQ ID NO: 20: overlapping 10-amino-acid peptide fragment from SEQ ID NO: 15 library, contains SEQ ID NO: 22 (FPQQEFPQQQ; epitope candidate)				strong binding
SEQ ID NO: 21: overlapping 10-amino-acid peptide fragment from SEQ ID NO: 15 library (QFPQQEFPQQ; epitope candidate)				no binding
SEQ ID NO: 24: overlapping 10-amino-acid peptide fragment from SEQ ID NO: 23 library (QQQPPQQHQF; epitope candidate)				no binding
SEQ ID NO: 25: overlapping 10-amino-acid peptide fragment from SEQ ID NO: 23 library, contains SEQ ID NO: 29 (PQQQPPQQHQ; epitope candidate)				strong binding
SEQ ID NO: 26: overlapping 10-amino-acid peptide fragment from SEQ ID NO: 23 library, contains SEQ ID NO: 29 (FPQQQPPQQH; epitope candidate)				strong binding
SEQ ID NO: 27: overlapping 10-amino-acid peptide fragment from SEQ ID NO: 23 library, contains SEQ ID NO: 29 (QFPQQQPPQQ; epitope candidate)				slightly weaker binding
SEQ ID NO: 28: overlapping 10-amino-acid peptide fragment from SEQ ID NO: 23 library (QQFPQQQPPQ; epitope candidate)				no binding
SEQ ID NO: 30: amino acid at position 7 in SEQ ID NO: 22 substituted with alanine (QQFPQQEFPQQAQFP; modified epitope)	lost or reduced		developed binding activity	
SEQ ID NO: 31: amino acid at position 6 in SEQ ID NO: 22 substituted with alanine (QQFPQQEFPQAQQFP; modified epitope)	slightly reduced binding activity	developed a relatively low level of binding activity	developed a relatively low level of binding activity	
SEQ ID NO: 33: amino acid at position 4 in SEQ ID NO: 22 substituted with alanine (QQFPQQEFAQQQQFP; modified epitope)	lost or reduced	developed binding activity		
SEQ ID NO: 34: amino acid at position 2 in SEQ ID NO: 22 substituted with alanine (QQFPQQAFPQQQQFP; modified epitope)	slightly increased binding activity	developed binding activity		
SEQ ID NO: 39: amino acid at position 4 in SEQ ID NO: 29 substituted with alanine (PQQAPPQQHQFPQQQ; modified epitope)	retained binding activity	did not develop binding activity		
SEQ ID NO: 40: amino acid at position 3 in SEQ ID NO: 29 substituted with alanine (PQAQPPQQHQFPQQQ; modified epitope)	loss of binding activity		developed binding activity	
SEQ ID NO: 41: amino acid at position 2 in SEQ ID NO: 29 substituted with alanine (PAQQPPQQHQFPQQQ; modified epitope)	a relatively low level of reduction of binding activity			
SEQ ID NO: 42: amino acid at position 1 in SEQ ID NO: 29 substituted with alanine (AQQQPPQQHQFPQQQ; Artificial Sequnece; modified epitope)	loss of binding activity			
